# From patent US10195155B2, “Drug carrier for tumor-specific targeted drug delivery and use thereof” (Institute of Biophysics, Chinese Academy of Sciences, priority 2014, dated 2019)
# What was measured:
# HT-29 implanted tumor = assay: Anti-tumor pharmacodynamics in nude mice bearing HT-29 implanted tumor; settings: single tail vein dose
# Description: 40 female BALB/c nude mice bearing HT-29 implanted tumor were randomly divided into five groups. When the volume of the implanted tumor was up to about 100 square millimeters, drugs were injected to all of tumor-bearing mice through the tail vein. […] Since the maximal tolerated dosage of mice to free Doxorubicin was 5 mg/kg mouse body weight, the administration dosage of the free Doxorubicin group was 5 mg/kg mouse body weight. […] Measurements of body weights and tumors of mice were three times per week.
# [1] = Maximal tolerated dosage in healthy mice, single administration; settings: HFn-Dox by Dox equivalent
# Description: In the therapy of a cancer patient, the dosage of administration and the number of administration were very important. However, bound by toxic side effects of chemotherapeutic drugs, the therapy of cancer usually became administration in a small amount at a high frequency.
smiles,measurement,setting,value
"COc1cccc2c1C(=O)c1c(O)c3c(c(O)c1C2=O)C[C@@](O)(C(=O)CO)C[C@@H]3O[C@H]1C[C@H](N)[C@H](O)[C@H](C)O1 [free Doxorubicin, Doxorubicin]",average survival time of tumor-bearing mice,"HT-29 implanted tumor; free Dox 5 mg/kg, Doxil 20 mg/kg",18 days
same,tumor growth inhibition,"HT-29 implanted tumor; free Doxorubicin 5 mg/kg, HFn-Dox and Doxil 20 mg/kg, 40-day window",almost no inhibitory effect
same,maximal tolerated dosage,[1],5 mg/kg
